In US12227490B2, “Cereblon binding compounds, compositions thereof, and methods of treatment therewith” (Celgene Corporation, priority 2020, dated 2025) one finds DC50 and remaining activity data, which are given here for eleven molecules.

The target of the test is T1, AR (androgen receptor) protein in VCaP cells (Homo sapiens, UniProt P10275).
T1 construct: endogenous in cells; host or cells: VCaP cells
T1 sequence (P10275 1-920): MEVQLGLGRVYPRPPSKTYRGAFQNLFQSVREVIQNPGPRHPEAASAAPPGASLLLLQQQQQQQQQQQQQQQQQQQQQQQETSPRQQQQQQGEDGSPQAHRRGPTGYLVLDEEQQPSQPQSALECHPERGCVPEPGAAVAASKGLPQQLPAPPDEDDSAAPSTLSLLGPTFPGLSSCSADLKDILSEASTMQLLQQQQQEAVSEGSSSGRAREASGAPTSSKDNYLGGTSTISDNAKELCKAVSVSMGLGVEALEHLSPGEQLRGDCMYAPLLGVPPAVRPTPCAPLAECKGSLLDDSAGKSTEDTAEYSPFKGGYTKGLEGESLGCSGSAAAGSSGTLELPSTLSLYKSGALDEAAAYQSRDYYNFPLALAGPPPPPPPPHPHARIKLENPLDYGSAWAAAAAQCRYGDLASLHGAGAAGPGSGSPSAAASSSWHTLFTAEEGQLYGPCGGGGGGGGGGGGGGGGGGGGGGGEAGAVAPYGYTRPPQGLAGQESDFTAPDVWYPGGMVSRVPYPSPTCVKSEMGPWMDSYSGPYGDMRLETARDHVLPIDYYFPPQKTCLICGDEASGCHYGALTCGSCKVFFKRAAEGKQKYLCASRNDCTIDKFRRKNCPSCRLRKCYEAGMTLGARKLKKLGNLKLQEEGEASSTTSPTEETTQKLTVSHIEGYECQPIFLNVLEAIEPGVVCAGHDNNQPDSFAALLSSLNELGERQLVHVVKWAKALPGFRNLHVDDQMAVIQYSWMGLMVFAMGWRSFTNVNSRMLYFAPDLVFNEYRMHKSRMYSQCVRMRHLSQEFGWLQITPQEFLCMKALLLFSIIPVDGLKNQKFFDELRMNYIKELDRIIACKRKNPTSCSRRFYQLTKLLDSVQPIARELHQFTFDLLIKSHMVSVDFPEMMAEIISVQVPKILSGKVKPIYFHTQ
In words: VCAP AR Degradation Assay. Format: cell-based. Conditions: 24 h, AR ELISA; for DC50: concentration of compound when AR level = 50% of DMSO control; for remaining activity at up to 5 µM: top concentration 5 μM, read-out: Y (lowest measured AR level normalized to DMSO control, AR degradation efficiency). How it is done: VCAP AR Degradation Assay. Test compounds were pre-dispensed into a Corning CellBind 96-well clear bottom plate (Cat #3300) using an acoustic dispenser to make a 10-point concentration series at 1:3 dilution for each compound. The final top concentration of each compound was 5 μM. DMSO at a final concentration of 0.1% was used as a control. VCaP cells cultured in DMEM with 8% fetal bovine serum (FBS) were seeded at 50K cells per well in a 200 μL volume into the compound plate and incubated at 37° C. in a CO2 incubator for 24 h. The medium was carefully removed from the cells and the plate was placed on ice. One hundred μL of ice-cold 1× cell lysis buffer from Cell Signaling Technologies (Cat #9803) was added to each well of the cells and the plate was incubated at 4° C. on a shaker for 1 h. Fifteen μL of cell lysate was used for AR ELISA detection using a PathScan Total Sandwich AR ELISA kit (Cell Signaling Technology, Cat #12580). AR levels in compound-treated wells were normalized to that of DMSO control and expressed as percent of control (PoC) (y). A Four Parameter Logistic Model (Sigmoidal Dose-Response Model) was used to determine the compound's DC50, and EC50, using the following equation: y=(A+((B−A)/(1+((C/x)^D)))) • A=YMin (lowest AR level normalized to DMSO control in response to compound treatment, as determined by curve fit) • B=YMax (maximum AR level as determined by curve fit) • C=EC50 • D=Hill Slope • x=compound concentration • EC50=the concentration of compound when y=(YMax−YMin)/2 • DC50=the concentration of the compound when y=50% of DMSO control (50% AR degradation) • y=AR protein level normalized to DMSO control
The lowest measured AR level normalized to DMSO control in response to compound treatment, termed Y value, was used to characterize the compound-mediated AR degradation efficiency.

Where a name gives a salt, the structure may show the parent alone.

Turning to `C[C@@H]1C[C@H](OCC[C@H]2CC[C@H](N3C(=S)N(c4cnc(C#N)c(C(F)(F)F)c4)C(=O)C3(C)C)CC2)C[C@H](C)N1CC(=O)Nc1cccc2c(C3CCC(=O)NC3=O)nn(C)c12` (stereo partly drawn) [Cmpd 25, 2-((2R,4r,6S)-4-(2-((trans)-4-(3-(6-Cyano-5-(trifluoromethyl)pyridin-3-yl)-5,5-dimethyl-4-oxo-2-thioxoimidazolidin-1-yl)cyclohexyl)ethoxy)-2,6-dimethylpiperidin-1-yl)-N-(3-(2,6-dioxopiperidin-3-yl)-1-methyl-1H-indazol-7-yl)acetamide], the DC50 (usually the concentration giving 50% degradation) lay in the range of 2 to 5 nM and the remaining activity at up to 5 µM was in the range of 0 to 25%.

Take `C[C@@H]1C[C@H](OCCO[C@H]2CC[C@H](N3C(=S)N(c4cnc(C#N)c(C(F)(F)F)c4)C(=O)C3(C)C)CC2)C[C@H](C)N1CC(=O)Nc1cccc2c(C3CCC(=O)NC3=O)nn(C)c12` (stereo partly drawn) [Cmpd 28, 2-((2R,4r,6S)-4-(2-(((trans)-4-(3-(6-Cyano-5-(trifluoromethyl)pyridin-3-yl)-5,5-dimethyl-4-oxo-2-thioxoimidazolidin-1-yl)cyclohexyl)oxy)ethoxy)-2,6-dimethylpiperidin-1-yl)-N-(3-(2,6-dioxopiperidin-3-yl)-1-methyl-1H-indazol-7-yl)acetamide]: the DC50 is less than 2 nM and the remaining activity at up to 5 µM was 0 to 25%.

For the molecule `Cn1nc(C2CCC(=O)NC2=O)c2cccc(NC(=O)CN3CCN(CCCO[C@H]4CC[C@H](N5C(=S)N(c6ccc(C#N)c(C(F)(F)F)c6)C(=O)C5(C)C)CC4)C[C@@H]3C(F)(F)F)c21` (stereo partly drawn) [Cmpd 21, 2-((R)-4-(3-(((trans)-4-(3-(4-Cyano-3-(trifluoromethyl)phenyl)-5,5-dimethyl-4-oxo-2-thioxoimidazolidin-1-yl)cyclohexyl)oxy)propyl)-2-(trifluoromethyl)piperazin-1-yl)-N-(3-(2,6-dioxopiperidin-3-yl)-1-methyl-1H-indazol-7-yl)acetamide], the DC50 is less than 2 nM and the remaining activity at up to 5 µM was in the range of 0 to 25%.

As for `Cn1nc(C2CCC(=O)NC2=O)c2cccc(NC(=O)CN3CCN(CCC[C@H]4CC[C@H](N5C(=S)N(c6cnc(C#N)c(C(F)(F)F)c6)C(=O)C5(C)C)CC4)C[C@@H]3C(F)(F)F)c21` (stereo partly drawn) [Cmpd 17, 2-((R)-4-(3-((trans)-4-(3-(6-Cyano-5-(trifluoromethyl)pyridin-3-yl)-5,5-dimethyl-4-oxo-2-thioxoimidazolidin-1-yl)cyclohexyl)propyl)-2-(trifluoromethyl)piperazin-1-yl)-N-(3-(2,6-dioxopiperidin-3-yl)-1-methyl-1H-indazol-7-yl)acetamide], the DC50 was 2 to 5 nM and the remaining activity at up to 5 µM fell in the range of 0 to 25%.

Regarding `C[C@@H]1CN(CCC[C@H]2CC[C@H](N3C(=S)N(c4cnc(C#N)c(Cl)c4)C(=O)C3(C)C)CC2)C[C@H](C)N1CC(=O)Nc1cccc2c(C3CCC(=O)NC3=O)nn(C)c12` (stereo partly drawn) [Cmpd 10, 2-((2R,6S)-4-(3-(trans-4-(3-(5-Chloro-6-cyanopyridin-3-yl)-5,5-dimethyl-4-oxo-2-thioxoimidazolidin-1-yl)cyclohexyl)propyl)-2,6-dimethylpiperazin-1-yl)-N-(3-(2,6-dioxopiperidin-3-yl)-1-methyl-1H-indazol-7-yl)acetamide], the DC50 fell in the range of 2 to 5 nM and the remaining activity at up to 5 µM fell in the range of 30 to 50%.

For the molecule `C[C@@H]1CN(CCO[C@H]2CC[C@H](N3C(=S)N(c4ccc(C#N)c(Cl)c4)C(=O)C3(C)C)CC2)C[C@H](C)N1CC(=O)Nc1cccc2c(C3CCC(=O)NC3=O)nn(C)c12` (stereo partly drawn) [Cmpd 3, 2-((2R,6S)-4-(2-((trans-4-(3-(3-Chloro-4-cyanophenyl)-5,5-dimethyl-4-oxo-2-thioxoimidazolidin-1-yl)cyclohexyl)oxy)ethyl)-2,6-dimethylpiperazin-1-yl)-N-(3-(2,6-dioxopiperidin-3-yl)-1-methyl-1H-indazol-7-yl)acetamide hydrochloride], the DC50 is less than 2 nM and the remaining activity at up to 5 µM was 0 to 25%.

For the molecule `C[C@@H]1CN(CCO[C@H]2CC[C@H](N3C(=S)N(c4cnc(C#N)c(Cl)c4)C(=O)C3(C)C)CC2)C[C@H](C)N1CC(=O)Nc1cccc2c(C3CCC(=O)NC3=O)nn(C)c12` (stereo partly drawn) [Cmpd 6, 2-((2R,6S)-4-(2-((trans-4-(3-(5-Chloro-6-cyanopyridin-3-yl)-5,5-dimethyl-4-oxo-2-thioxoimidazolidin-1-yl)cyclohexyl)oxy)ethyl)-2,6-dimethylpiperazin-1-yl)-N-(3-(2,6-dioxopiperidin-3-yl)-1-methyl-1H-indazol-7-yl)acetamide hydrochloride], the DC50 was less than 2 nM and the remaining activity at up to 5 µM lay in the range of 0 to 25%.

As to `C[C@@H]1CN(CCO[C@H]2CC[C@H](N3C(=S)N(c4ccc(C#N)c(C(F)(F)F)c4)C(=O)C3(C)C)CC2)C[C@H](C)N1CC(=O)Nc1cccc2c(C3CCC(=O)NC3=O)nn(C)c12` (stereo partly drawn) [Cmpd 1, 2-((2S,6R)-4-(2-((trans-4-(3-(4-Cyano-3-(trifluoromethyl)phenyl)-5,5-dimethyl-4-oxo-2-thioxoimidazolidin-1-yl)cyclohexyl)oxy)ethyl)-2,6-dimethylpiperazin-1-yl)-N-(3-(2,6-dioxopiperidin-3-yl)-1-methyl-1H-indazol-7-yl)acetamide hydrochloride], the DC50 is less than 2 nM and the remaining activity at up to 5 µM fell in the range of 0 to 25%.

In the case of `C[C@@H]1C[C@H](CCO[C@H]2CC[C@H](N3C(=S)N(c4cnc(C#N)c(C(F)(F)F)c4)C(=O)C3(C)C)CC2)C[C@H](C)N1CC(=O)Nc1cccc2c(C3CCC(=O)NC3=O)nn(C)c12` (stereo partly drawn) [Cmpd 15, 2-((2R,4r,6S)-4-(2-(((trans)-4-(3-(6-Cyano-5-(trifluoromethyl)pyridine-3-yl)-5,5-dimethyl-4-oxo-2-thioxoimidazolidin-1-yl)cyclohexyl)oxy)ethyl)-2,6-dimethylpiperidin-1-yl)-N-(3-(2,6-dioxopiperidin-3-yl)-1-methyl-1H-indazol-7-yl)acetamide], the DC50 was less than 2 nM and the remaining activity at up to 5 µM is 0 to 25%.

In the case of `C[C@@H]1C[C@H](CCO[C@H]2CC[C@H](N3C(=S)N(c4ccc(C#N)c(C(F)(F)F)c4)C(=O)C3(C)C)CC2)C[C@H](C)N1CC(=O)Nc1cccc2c(C3CCC(=O)NC3=O)nn(C)c12` (stereo partly drawn) [Cmpd 13, 2-((2R,4r,6S)-4-(2-((trans-4-(3-(4-Cyano-3-(trifluoromethyl)phenyl)-5,5-dimethyl-4-oxo-2-thioxoimidazolidin-1-yl)cyclohexyl)oxy)ethyl)-2,6-dimethylpiperidin-1-yl)-N-(3-(2,6-dioxopiperidin-3-yl)-1-methyl-1H-indazol-7-yl)acetamide hydrochloride], the DC50 was 2 to 5 nM and the remaining activity at up to 5 µM fell in the range of 0 to 25%.

For `Cn1nc(C2CCC(=O)NC2=O)c2cccc(NC(=O)CN3CCC(CCO[C@H]4CC[C@H](N5C(=S)N(c6cnc(C#N)c(C(F)(F)F)c6)C(=O)C5(C)C)CC4)C(F)(F)C3)c21` (stereo partly drawn) [Cmpd 29, 2-(4-(2-(((trans)-4-(3-(6-Cyano-5-(trifluoromethyl)pyridin-3-yl)-5,5-dimethyl-4-oxo-2-thioxoimidazolidin-1-yl)cyclohexyl)oxy)ethyl)-3,3-difluoropiperidin-1-yl)-N-(3-(2,6-dioxopiperidin-3-yl)-1-methyl-1H-indazol-7-yl)acetamide], the DC50 was less than 2 nM and the remaining activity at up to 5 µM was 0 to 25%.
